Source: US20230147683A1, “TREATMENT” (UNION Therapeutics A/S, priority 2020, published 2023)

Tested on: European D614G strain of SARS-CoV-2 (BavPat1/2020)
Assay type: cell-based

O=C(Nc1ccc([N+](=O)[O-])cc1Cl)c1cc(Cl)ccc1O [niclosamide ethanolamine]
reduction of intracellular viral RNA level compared to non-treated control: 3 fold
